Experimental findings from patent US8871901B2, “Phage constructs, sequences and antigenic compositions for immunocontraception of animals” (Auburn University, priority 2010, dated 2014) are described below.

The first assay concerns cat oocyte ZP. Description: Landscape phage library selection on cat oocytes with intact zona pellucida. The conditions noted are these: 9-mer peptides displayed on landscape phage. The format is binding. An excerpt: Using a strategy similar to the strategy of Examples 2, 5, and 7, 9-mer peptides that bind to cat oocyte ZP were identified using a landscape phage library. In this library, foreign (non-phage) 9-mer peptides are expressed in each pVIII copy over the phage surface resulting in thousands of peptide copies per phage particle. […] Sequences of the identified peptides are AGSSYTQDS (SEQ ID NO:53); EVNGGSADS (SEQ ID NO:54); EAYPGLDWD (SEQ ID NO:55); and VKSEDPSLN (SEQ ID NO:56).
With “EAYPGLDWD (Phage library random peptide insert) [SEQ ID NO:55]”, the “binding to cat ZP” value is “specifically recognize and bind to cat ZP”.
Regarding “EVNGGSADS (Phage library random peptide insert) [SEQ ID NO:54]”, the “binding to cat ZP” value is “specifically recognize and bind to cat ZP”.
Take “VKSEDPSLN (Phage library random peptide insert) [SEQ ID NO:56]”: the “binding to cat ZP” value is “specifically recognize and bind to cat ZP”.
Take “AGSSYTQDS (Phage library random peptide insert) [SEQ ID NO:53]”: the “binding to cat ZP” value is “specifically recognize and bind to cat ZP”.

Another assay has as its system dog oocyte ZP. In words: Landscape phage library selection on dog oocytes with intact zona pellucida. The class given is binding. The conditions noted are these: 9-mer peptides displayed on landscape phage. From the text:
Using a strategy similar to the strategy of Examples 2 and 5, 9-mer peptides that bind to dog oocyte ZP were identified using a landscape phage library. In this library, foreign (non-phage) 9-mer peptides are expressed in each pVIII copy over the phage surface resulting in thousands of peptide copies per phage particle. […] Sequences of the identified peptides are DDLNSFVND (SEQ ID NO:47); ADLAAFYDD (SEQ ID NO:48); EPGGMVGSD (SEQ ID NO:49); DGVYLVGDD (SEQ ID NO:50); DWSGQDVEN (SEQ ID NO:51); and GMVGSGYDS (SEQ ID NO:52).
Take “DDLNSFVND (Phage library random peptide insert) [SEQ ID NO:47]”: the “binding to dog ZP” value is “specifically recognize and bind to dog ZP”.
Still for that read-out and setting: the entry for “EPGGMVGSD (Phage library random peptide insert) [SEQ ID NO:49]” is “specifically recognize and bind to dog ZP”.
On to “DWSGQDVEN (Phage library random peptide insert) [SEQ ID NO:51]”, for which the “binding to dog ZP” value is “specifically recognize and bind to dog ZP”.
With “DGVYLVGDD (Phage library random peptide insert) [SEQ ID NO:50]”, the “binding to dog ZP” value is “specifically recognize and bind to dog ZP”.
Take “ADLAAFYDD (Phage library random peptide insert) [SEQ ID NO:48]”: the “binding to dog ZP” value was “specifically recognize and bind to dog ZP”.
Consider “GMVGSGYDS (Phage library random peptide insert) [SEQ ID NO:52]”, for which the “binding to dog ZP” value is “specifically recognize and bind to dog ZP”.

The test system of another assay is pig oocyte ZP. Description: Landscape phage library selection on pig oocytes with intact zona pellucida, after negative selection on cat, dog and cow oocytes. The class given is binding. Particulars: 9-mer peptides displayed on landscape phage. Here is the method: Using a strategy similar to the strategy of Example 2, 9-mer peptides that bind specifically to pig oocyte ZP were identified using a landscape phage library. In this library, foreign (non-phage) 9-mer peptides are expressed in each pVIII copy over the phage surface resulting in thousands of peptide copies per phage particle. […] Prior to phage display library selection on pig oocytes, negative selection steps on cat, dog and cow oocytes were performed. Sequences of the identified peptides are DPGLSLGDD (SEQ ID NO:41); AYNLGEGDT (SEQ ID NO:42); GQQGLNGDS (SEQ ID NO:43); DVGGGTGTE (SEQ ID NO:44); GPNSSDADS (SEQ ID NO:45); and GEGGYGSHD (SEQ ID NO:46).
“DPGLSLGDD (Phage library random peptide insert) [SEQ ID NO:41]”: the “binding to pig ZP” value was “specifically recognize and bind to pig ZP”.
Same read-out and setting: in the case of “AYNLGEGDT (Phage library random peptide insert) [SEQ ID NO:42]” it was “specifically recognize and bind to pig ZP”.
The same measure, in the same setting: in the case of “DVGGGTGTE (Phage library random peptide insert) [SEQ ID NO:44]” it was “specifically recognize and bind to pig ZP”; in that of “GEGGYGSHD (Phage library random peptide insert) [SEQ ID NO:46]”, “specifically recognize and bind to pig ZP”.
As for “GQQGLNGDS (Phage library random peptide insert) [SEQ ID NO:43]”, the “binding to pig ZP” value is “specifically recognize and bind to pig ZP”.
Same read-out and setting: in the case of “GPNSSDADS (Phage library random peptide insert) [SEQ ID NO:45]” it was “specifically recognize and bind to pig ZP”.
